Measurements: BindingDB's records for doi:10.1016/j.chembiol.2012.04.012 (Albert Einstein College of Medicine, 2012)

Molecular target: T1, Hypoxanthine-guanine-xanthine phosphoribosyltransferase (Plasmodium falciparum (isolate FCR-3 / Gambia), UniProt P20035)
T1 sequence (P20035 whole entry): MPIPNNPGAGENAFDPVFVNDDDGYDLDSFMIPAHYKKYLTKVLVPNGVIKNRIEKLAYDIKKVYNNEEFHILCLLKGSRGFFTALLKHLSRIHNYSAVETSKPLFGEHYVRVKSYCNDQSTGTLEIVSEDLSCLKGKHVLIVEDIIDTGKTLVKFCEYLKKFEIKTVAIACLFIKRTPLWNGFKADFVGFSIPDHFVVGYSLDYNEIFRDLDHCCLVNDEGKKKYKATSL
Assay: Inhbition Assay
Conditions: pH 7.6; 37 °C
Protocol: PfHGXPRT activity was measured using spectrophotometric assay observing the conversion of xanthine and 5-phospho-alpha-D-ribose-1-pyrophosphate to xanthosine-5'-monophosphate and inorganic pyrophosphate (PPi) at 247nm or the conversion of guanine and PRPP to guanosine-5'-monophosphate and PPi on a Varian Cary 100 spectrophotometer.

| Ki [nM] | SMILES |
| --- | --- |
| 10.6 | O=c1[nH]cnc2c(NCCCP(=O)(O)O)c[nH]c12 [HGXPRT Inhibitor, 2] |
| 0.65 | O=c1[nH]cnc2c(N[C@H](CO)CCP(=O)(O)O)c[nH]c12 [HGXPRT Inhibitor, 3] |
